The record followed here is patent US12065445B2, “CDK2 inhibitors and methods of using the same” (Cedilla Therapeutics, Inc., priority 2021, dated 2024).

The test system of the experiment is Kuramochi cells. Kind of experiment: BrdU Cell Proliferation Assay. In kind it is cell-based. The note with it: read-out: BrdU - KURAMOCHI.1: IC50. As for the experimental part: A BrdU assay was used as a measure of proliferation based on the DNA replication process of proliferating cells. BrdU, a pyrimidine analog, is added to the cell culture and incorporated into the DNA of proliferating cells. The presence of the BrdU analog was then measured through a colorimetric ELISA. After fixation and permeabilization of cells, peroxidase-conjugated antibody recognizing BrdU is added and allowed to incubate, followed by thorough washing to remove unbound antibody. In order to quantify the amount of bound antibody, peroxidase substrate is added and produces a color that can be measured at 450 nm.
On day −1, Kuramochi cells (Sekisui XenoTech JCRB0098) were seeded at 2,000 cells/well in columns 2-12 of a 96 well plate (Corning, CLS3596) in 150 μL media and allowed to adhere overnight at 37 degree with 5% CO2.
On day 0, the source plate was prepared by adding 10 mM compounds and performing 3-fold serial dilutions for a 10-point dose response of each compound. Using a multichannel pipette, 2 μL of the contents of the source plate were stamped into an intermediate plate with 500 μL of RPMI 1640 Media, GlutaMAX Supplement (Life Technologies, 61870127) in each well of a Nunc 96 DeepWell™ plate, non-treated 96 DeepWell plate, 2 mL/well, sterile, natural, 60/cs (Sigma Z717274) and mixed thoroughly. 50 μL from each well of this intermediate plate were added to 4 wells of a 96-well plate with previously seeded Kuramochi cells.
On day 4, the plates were developed using the BrdU ELISA Cell Proliferation Assay according to manufacturer's instructions (Roche, 11647229001). Briefly, BrdU was diluted 1:100 in Gibco®, OptiMEM® and 20 μL/well was added, shaken for 10 minutes at 350 rpm, and then returned to the incubator for 1 hour. Following incubation, the medium was discarded, and the cells were fixed by adding 200 μL of Fix/Denature solution. The anti-BrdU peroxidase antibody was diluted 1:1000 in OptiMEM, added at 100 μL/well, and incubated while shaking (350 rpm) for one hour. Three washes with PBS were performed to remove any unbound antibody, followed by the addition of 100 μL of substrate solution to each well. 25 μL/well of 1M sulfuric acid solution was then added to halt the reaction, and plates were read out using an Envision spectrophotometer (Perkin Elmer) set to read 450 nm absorbance. Background absorbance values from empty wells were subtracted from all samples and then normalized to DMSO treated wells.
With `CNC(=O)[C@@H](NC(=O)[C@@H]1CN(C(=O)c2cnn(CC(F)(F)F)c2)CC12CN(C(=O)CC1CC1)C2)[C@@H](C)OCc1ccccc1` [I-43A], the IC50 was greater than 10 µM.

In the case of `CNC(=O)[C@@H](NC(=O)[C@H]1CN(C(=O)c2cnn(CC(F)(F)F)c2)CC12CN(C(=O)CC1CC1)C2)[C@@H](C)OCc1ccccc1` [I-43B], the IC50 was greater than 10 µM.

With `CNC(=O)[C@@H](NC(=O)[C@@H]1CN(C(=O)c2cnc[nH]2)CC12CN(C(=O)[C@H]1CC1(C)C)C2)[C@@H](C)OCc1ccccc1` [I-44A], the IC50 is greater than 10 µM.

For the compound `CNC(=O)[C@@H](NC(=O)[C@H]1CN(C(=O)c2cnc[nH]2)CC12CN(C(=O)[C@H]1CC1(C)C)C2)[C@@H](C)OCc1ccccc1` [I-44B], the IC50 is greater than 10 µM.

In the case of `CNC(=O)[C@@H](NC(=O)[C@@H]1CN(C(=O)c2ccccn2)CC12CN(C(=O)[C@H]1CC1(C)C)C2)[C@@H](C)OCc1ccccc1` [I-45A], the IC50 is greater than 10 µM.

For the compound `CNC(=O)[C@@H](NC(=O)[C@H]1CN(C(=O)c2ccccn2)CC12CN(C(=O)[C@H]1CC1(C)C)C2)[C@@H](C)OCc1ccccc1` [I-45B], the IC50 is greater than 10 µM.

`CNC(=O)[C@@H](NC(=O)[C@@H]1CN(C(=O)c2ccncc2)CC12CN(C(=O)[C@H]1CC1(C)C)C2)[C@@H](C)OCc1ccccc1` [I-46A]: the IC50 was greater than 10 µM.

As for `CNC(=O)[C@@H](NC(=O)[C@H]1CN(C(=O)c2ccncc2)CC12CN(C(=O)[C@H]1CC1(C)C)C2)[C@@H](C)OCc1ccccc1` [I-46B], the IC50 is greater than 10 µM.

Consider `CNC(=O)[C@@H](NC(=O)[C@@H]1CN(Cc2cnn(C)c2)CC12CN(C(=O)[C@H]1CC1(C)C)C2)[C@@H](C)OCc1ccccc1` [I-47A], for which the IC50 is greater than 10 µM.

`CNC(=O)[C@@H](NC(=O)[C@@H]1CN(C(=O)Nc2cnn(Cc3ccccc3)c2)CC12CN(C(=O)[C@H]1CC1(C)C)C2)[C@@H](C)OCc1ccccc1` [I-48A, (S)—N6-(1-benzyl-1H-pyrazol-4-yl)-N8-((2S,3R)-3-(benzyloxy)-1-(methylamino)-1-oxobutan-2-yl)-2-((S)-2,2-dimethylcyclopropane-1-carbonyl)-2,6-diazaspiro[3.4]octane-6,8-dicarboxamide]: the IC50 is greater than 10 µM.

Consider `CNC(=O)[C@@H](NC(=O)[C@H]1CN(C(=O)Nc2cnn(Cc3ccccc3)c2)CC12CN(C(=O)[C@H]1CC1(C)C)C2)[C@@H](C)OCc1ccccc1` [I-48B], for which the half-inhibitory concentration (IC50) is greater than 10 µM.

Regarding `CNC(=O)[C@@H](NC(=O)[C@H]1CN(Cc2cccnc2)CC12CN(C(=O)[C@H]1CC1(C)C)C2)[C@@H](C)OCc1ccccc1` [I-49B], the IC50 is greater than 10 µM.

For `CNC(=O)[C@@H](NC(=O)[C@@H]1CN(Cc2cn[nH]c2)CC12CN(C(=O)[C@H]1CC1(C)C)C2)[C@@H](C)OCc1ccccc1` [I-50A], the IC50 was greater than 10 µM.

Regarding `CNC(=O)[C@@H](NC(=O)[C@H]1CN(Cc2cn[nH]c2)CC12CN(C(=O)[C@H]1CC1(C)C)C2)[C@@H](C)OCc1ccccc1` [I-50B], the IC50 is greater than 10 µM.

In the case of `CNC(=O)[C@@H](NC(=O)[C@H]1CN(Cc2cncs2)CC12CN(C(=O)[C@H]1CC1(C)C)C2)[C@@H](C)OCc1ccccc1` [I-51B], the IC50 was greater than 10 µM.

Take `CNC(=O)[C@@H](NC(=O)[C@@H]1CN(C(=O)c2cnn(CC3CC3)c2)CC12CN(C(=O)CC1CC1)C2)[C@@H](C)OCc1ccccc1` [I-53A]: the IC50 is greater than 10 µM.

Turning to `CNC(=O)[C@@H](NC(=O)[C@H]1CN(C(=O)c2cnn(CC3CC3)c2)CC12CN(C(=O)CC1CC1)C2)[C@@H](C)OCc1ccccc1` [I-53B], the IC50 is greater than 10 µM.

In the case of `CNC(=O)[C@@H](NC(=O)[C@@H]1CN(C(=O)c2cnn(Cc3ccccc3)c2)CC12CN(C(=O)C(C)C)C2)[C@@H](C)OCc1ccccc1` [I-54A], the IC50 is greater than 10 µM.

As to `CNC(=O)[C@@H](NC(=O)[C@H]1CN(C(=O)c2cnn(Cc3ccccc3)c2)CC12CN(C(=O)C(C)C)C2)[C@@H](C)OCc1ccccc1` [I-54B], the IC50 is greater than 10 µM.

In the case of `CNC(=O)[C@@H](NC(=O)[C@@H]1CN(Cc2ccncc2)CC12CN(C(=O)[C@H]1CC1(C)C)C2)[C@@H](C)OCc1ccccc1` [I-55A], the IC50 is greater than 10 µM.

In the case of `CNC(=O)[C@@H](NC(=O)[C@H]1CN(Cc2ccncc2)CC12CN(C(=O)[C@H]1CC1(C)C)C2)[C@@H](C)OCc1ccccc1` [I-55B], the IC50 was greater than 10 µM.

As to `CNC(=O)[C@@H](NC(=O)[C@@H]1CN(C(=O)c2cnn(Cc3ccccc3)c2)CC12CN(C(=O)CC1CC1)C2)[C@@H](C)OCC1CCCCC1` [I-56A], the IC50 is greater than 10 µM.

As for `CNC(=O)[C@@H](NC(=O)[C@H]1CN(C(=O)c2cnn(Cc3ccccc3)c2)CC12CN(C(=O)CC1CC1)C2)[C@@H](C)OCC1CCCCC1` [I-56B], the IC50 was greater than 10 µM.

For `CC1(C)C[C@@H]1C(=O)N1CC2(CN(C(=O)c3cnn(Cc4ccccc4)c3)C[C@H]2C(=O)N2CCC(Cc3ccccc3)CC2)C1` [I-58A], the half-maximal inhibitory concentration (IC50) is greater than 10 µM.

With `CC1(C)C[C@@H]1C(=O)N1CC2(CN(C(=O)c3cnn(Cc4ccccc4)c3)C[C@@H]2C(=O)N2CCC(Cc3ccccc3)CC2)C1` [I-58B], the IC50 is greater than 10 µM.

As for `CC1(C)C[C@@H]1C(=O)N1CC2(CN(C(=O)c3cnn(Cc4ccccc4)c3)C[C@H]2C(=O)NC2CCCN(C(=O)c3ccccc3)C2)C1` (some centres unmarked) [I-59A], the IC50 was greater than 10 µM.

As for `CC1(C)C[C@@H]1C(=O)N1CC2(CN(C(=O)c3cnn(Cc4ccccc4)c3)C[C@@H]2C(=O)NC2CCCN(C(=O)c3ccccc3)C2)C1` (some centres unmarked) [I-59B], the IC50 is greater than 10 µM.

As to `CCCC(=O)N1CC2(C1)CN(C(=O)c1cnn(Cc3ccccc3)c1)C[C@H]2C(=O)N[C@H](C(=O)NC)[C@@H](C)OCc1ccccc1` [I-60A], the IC50 is greater than 10 µM.

For `CCCC(=O)N1CC2(C1)CN(C(=O)c1cnn(Cc3ccccc3)c1)C[C@@H]2C(=O)N[C@H](C(=O)NC)[C@@H](C)OCc1ccccc1` [I-60B], the IC50 is greater than 10 µM.

Consider `CC1(C)C[C@@H]1C(=O)N1CC2(CN(C(=O)c3cnn(Cc4ccccc4)c3)C[C@H]2C(=O)NC2CCN(C(=O)c3ccccc3)CC2)C1` [I-61A], for which the IC50 is greater than 10 µM.

For the compound `CC1(C)C[C@@H]1C(=O)N1CC2(CN(C(=O)c3cnn(Cc4ccccc4)c3)C[C@@H]2C(=O)NC2CCN(C(=O)c3ccccc3)CC2)C1` [I-61B], the IC50 is greater than 10 µM.

For `CNC(=O)[C@@H](NC(=O)[C@@H]1CN(C(=O)c2cnn(Cc3ccccc3)c2)CC12CN(C(=O)CC(C)(C)C)C2)[C@@H](C)OCc1ccccc1` [I-62A], the IC50 was greater than 10 µM.

For `CNC(=O)[C@@H](NC(=O)[C@H]1CN(C(=O)c2cnn(Cc3ccccc3)c2)CC12CN(C(=O)CC(C)(C)C)C2)[C@@H](C)OCc1ccccc1` [I-62B], the IC50 is greater than 10 µM.

Consider `CC1(C)C[C@@H]1C(=O)N1CC2(CN(C(=O)c3cnn(Cc4ccccc4)c3)C[C@H]2C(=O)Nc2cccc(-c3ccccc3)c2)C1` [I-63A], for which the IC50 lay in the range of 5 to 10 µM.

With `CC1(C)C[C@@H]1C(=O)N1CC2(CN(C(=O)c3cnn(Cc4ccccc4)c3)C[C@@H]2C(=O)Nc2cccc(-c3ccccc3)c2)C1` [I-63B], the IC50 was greater than 10 µM.

Take `COCC1CCCN(C(=O)[C@@H](NC(=O)C2CN(C(=O)c3cnn(Cc4ccccc4)c3)CC23CN(C(=O)[C@H]2CC2(C)C)C3)[C@@H](C)OCc2ccccc2)C1` (some centres unmarked) [I-64]: the IC50 was 0.5 to 5 µM.

Regarding `CNC(=O)[C@@H](NC(=O)[C@@H]1CN(C(=O)c2cnn(Cc3ccccc3)c2)CC12CN(C(=O)C(C)(C)C)C2)[C@@H](C)OCc1ccccc1` [I-65A], the IC50 is greater than 10 µM.

With `CNC(=O)[C@@H](NC(=O)[C@H]1CN(C(=O)c2cnn(Cc3ccccc3)c2)CC12CN(C(=O)C(C)(C)C)C2)[C@@H](C)OCc1ccccc1` [I-65B], the IC50 was greater than 10 µM.

Consider `CNC(=O)[C@@H](NC(=O)[C@@H]1CN(C(=O)c2cn[nH]c2)CC12CN(C(=O)[C@H]1CC1(C)C)C2)[C@@H](C)OCC1CCCCC1` [I-66A, (S)—N-((2S,3R)-3-(cyclohexylmethoxy)-1-(methylamino)-1-oxobutan-2-yl)-2-((S)-2,2-dimethylcyclopropane-1-carbonyl)-6-(1H-pyrazole-4-carbonyl)-2,6-diazaspiro[3.4]octane-8-carboxamide], for which the half-maximal inhibitory concentration (IC50) was greater than 10 µM.

In the case of `CNC(=O)[C@@H](NC(=O)[C@H]1CN(C(=O)c2cn[nH]c2)CC12CN(C(=O)[C@H]1CC1(C)C)C2)[C@@H](C)OCC1CCCCC1` [I-66B], the IC50 is greater than 10 µM.

As to `CNC(=O)[C@@H](NC(=O)[C@@H]1CN(C(=O)c2cnn(Cc3ccccc3)c2)CC12CN(C(=O)C1(C)CC1)C2)[C@@H](C)OCc1ccccc1` [I-67A, (S)-6-(1-benzyl-1H-pyrazole-4-carbonyl)-N-((2S,3R)-3-(benzyloxy)-1-(methylamino)-1-oxobutan-2-yl)-2-(1-methylcyclopropane-1-carbonyl)-2,6-diazaspiro[3.4]octane-8-carboxamide], the IC50 is greater than 10 µM.

Broadly, the IC50 is the concentration needed to halve the response being measured.
